Legend:
Assay in all cases: Test D controlled growth environment herbicide test, pre- and postemergence
Format in all cases: in vivo
[1] = test system: pigweed (Amaranthus retroflexus)
Source text: (§1) Seeds of plant species selected from bluegrass (annual bluegrass, Poa annua), blackgrass (Alopecurus myosuroides), Canada thistle (Cirsium arvense), canarygrass (Phalaris minor), chickweed (common chickweed, Stellaria media), geranium, cutleaf (cutleaf geranium, Geranium dissectum), galium (catchweed bedstraw, Galium aparine), bromegrass, downy (downy bromegrass, Bromus tectorum), field poppy (Papaver rhoeas), field violet (Viola arvensis), foxtail, green (green foxtail, Setaria viridis), deadnettle (henbit deadnettle, Lamium amplexicaule), ryegrass, Italian (Italian ryegrass, Lolium multiflorum), kochia (Kochia scoparia), lambsquarters (Chenopodium album), oilseed rape (Brassica napus), pigweed (Amaranthus retroflexus), chamomile (scentless chamomile, Matricaria inodora), Russian thistle (Salsola kali), speedwell (bird's-eye speedwell, Veronica persica), barley, spring (spring barley, Hordeum vulgare), wheat, spring (spring wheat, Triticum aestivum), buckwheat, wild (wild buckwheat, Polygonum convolvulus), mustard, wild (wild mustard, Sinapis arvensis), oat, wild (wild oat, Avena fatua), radish, wild (wild radish, Raphanus raphanistrum), windgrass (Apera spica-venti), barley, winter (winter barley, Hordeum vulgare), and wheat, winter (winter wheat, Triticum aestivum) were planted into a silt loam soil and treated preemergence with test chemicals formulated in a non-phytotoxic solvent mixture which included a surfactant.
(§2) At the same time, these species were planted in pots containing Redi-Earth® planting medium (Scotts Company, 14111 Scottslawn Road, Marysville, Ohio 43041) comprising spaghnum peat moss, vermiculite, wetting agent and starter nutrients and treated with postemergence applications of the test chemicals formulated in the same manner. Plants ranged in height from 2 to 18 cm (1- to 4-leaf stage). Treated plants and controls were maintained in a controlled growth environment for 14 to 21 d after which time all species were compared to controls and visually evaluated. Plant response ratings, summarized in Table D, are based on a scale of 0 to 100 where 0 is no effect and 100 is complete control. A dash (-) response means no test result.

[2] = test system: lambsquarters (Chenopodium album)
Source text: as §1, §2

[3] = test system: wheat, winter (winter wheat, Triticum aestivum)
Source text: as §1, §2

[4] = test system: ryegrass, Italian (Italian ryegrass, Lolium multiflorum)
Source text: as §1, §2

[5] = test system: barley, winter (winter barley, Hordeum vulgare)
Source text: as §1, §2

[6] = test system: windgrass (Apera spica-venti)
Source text: as §1, §2

[7] = test system: speedwell (bird's-eye speedwell, Veronica persica)
Source text: as §1, §2

[8] = test system: deadnettle (henbit deadnettle, Lamium amplexicaule)
Source text: as §1, §2

[9] = test system: kochia (Kochia scoparia)
Source text: as §1, §2

[10] = test system: chickweed (common chickweed, Stellaria media)
Source text: as §1, §2

[11] = test system: foxtail, green (green foxtail, Setaria viridis)
Source text: as §1, §2

[12] = test system: galium (catchweed bedstraw, Galium aparine)
Source text: as §1, §2

[13] = test system: blackgrass (Alopecurus myosuroides)
Source text: as §1, §2

[14] = Postemergence, 31 g ai/ha, scale 0 to 100 (0 no effect, 100 complete control)
[15] = Postemergence, 125 g ai/ha, visual rating on scale 0 (no effect) to 100 (complete control), 14 to 21 d
[16] = Postemergence, 250 g ai/ha, scale 0 to 100 (0 no effect, 100 complete control)
[17] = Preemergence, 62 g ai/ha, scale 0 to 100 (0 no effect, 100 complete control)
[18] = Preemergence, 125 g ai/ha, scale 0 to 100 (0 no effect, 100 complete control)
[19] = Preemergence, 250 g ai/ha, scale 0 to 100 (0 no effect, 100 complete control)
[20] = postemergence, 62 g ai/ha, scale 0 to 100, 0 no effect, 100 complete control

In the case of CC(=O)Oc1c(C)nn(C)c(=O)c1-c1c(C)sc2c(C)cc(C)cc12 [Compound 27], the “Pigweed plant response rating” value [1, 14] was 75, the “Plant response rating, Pigweed” value [1, 15] was 95 and the “Plant response rating, Pigweed” value [1, 16] was 95. The “Plant response rating (scale of 0 to 100), Pigweed” value ([1]; Preemergence, 31 g ai/ha) was 100, the “Plant response rating, Pigweed” value [1, 17] was 100 and the “Plant response rating, Pigweed” value [1, 18] was 100. The “Plant response rating, Pigweed” value [1, 19] was 100, the “Plant response rating, Pigweed” value [1, 20] was 85 and the “Lambsquarters plant response rating” value [2, 14] was 80. For the same compound, the “Plant response rating, Lambsquarters” value [2, 15] was 85, the “Plant response rating, Lambsquarters” value [2, 16] was 85 and the “Plant response rating (scale of 0 to 100), Lambsquarters” value ([2]; Preemergence, 31 g ai/ha) was 100. The “Plant response rating, Lambsquarters” value [2, 17] was 100, the “Plant response rating, Lambsquarters” value [2, 18] was 100 and the “Plant response rating, Lambsquarters” value [2, 19] was 100. The “Plant response rating, Lambsquarters” value [2, 20] was 85, the “Wheat, Winter plant response rating” value [3, 14] was 0 and the “Plant response rating, Wheat, Winter” value [3, 15] was 5. For the same compound, the “Plant response rating, Wheat, Winter” value [3, 16] was 10, the “Plant response rating (scale of 0 to 100), Wheat, Winter” value ([3]; Preemergence, 31 g ai/ha) was 0 and the “Plant response rating, Wheat, Winter” value [3, 17] was 0. For the same compound, the “Plant response rating, Wheat, Winter” value [3, 18] was 0, the “Plant response rating, Wheat, Winter” value [3, 19] was 5 and the “Plant response rating, Wheat, Winter” value [3, 20] was 5. For the same compound, the “Ryegrass, Italian plant response rating” value [4, 14] was 80, the “Plant response rating, Ryegrass, Italian” value [4, 15] was 85 and the “Plant response rating, Ryegrass, Italian” value [4, 16] was 85. For the same compound, the “Plant response rating (scale of 0 to 100), Ryegrass, Italian” value ([4]; Preemergence, 31 g ai/ha) was 90, the “Plant response rating, Ryegrass, Italian” value [4, 17] was 100 and the “Plant response rating, Ryegrass, Italian” value [4, 18] was 100. The “Plant response rating, Ryegrass, Italian” value [4, 19] was 100, the “Plant response rating, Ryegrass, Italian” value [4, 20] was 85 and the “Plant response rating, Barley, Winter” value [5, 14] was 0. The “Plant response rating, Barley, Winter” value [5, 15] was 5, the “Plant response rating, Barley, Winter” value [5, 16] was 5 and the “Plant response rating (scale of 0 to 100), Barley, Winter” value ([5]; Preemergence, 31 g ai/ha) was 0. The “Plant response rating, Barley, Winter” value [5, 17] was 0, the “Plant response rating, Barley, Winter” value [5, 18] was 10 and the “Barley, Winter plant response rating” value [5, 19] was 15. For the same compound, the “Plant response rating, Barley, Winter” value [5, 20] was 0, the “Windgrass plant response rating” value [6, 14] was 75 and the “Plant response rating, Windgrass” value [6, 15] was 80. For the same compound, the “Plant response rating, Windgrass” value [6, 16] was 90, the “Plant response rating (scale of 0 to 100), Windgrass” value ([6]; Preemergence, 31 g ai/ha) was 75 and the “Plant response rating, Windgrass” value [6, 17] was 85. The “Plant response rating, Windgrass” value [6, 18] was 100, the “Plant response rating, Windgrass” value [6, 19] was 100 and the “Plant response rating, Windgrass” value [6, 20] was 75. For the same compound, the “Speedwell plant response rating” value [7, 14] was 35, the “Plant response rating, Speedwell” value [7, 15] was 100 and the “Plant response rating, Speedwell” value [7, 16] was 100. For the same compound, the “Plant response rating (scale of 0 to 100), Speedwell” value ([7]; Preemergence, 31 g ai/ha) was 75, the “Plant response rating, Speedwell” value [7, 17] was 100 and the “Plant response rating, Speedwell” value [7, 18] was 100. The “Plant response rating, Speedwell” value [7, 19] was 100, the “Plant response rating, Speedwell” value [7, 20] was 70 and the “Deadnettle plant response rating” value [8, 14] was 5. For the same compound, the “Plant response rating, Deadnettle” value [8, 15] was 30, the “Plant response rating, Deadnettle” value [8, 16] was 60 and the “Plant response rating (scale of 0 to 100), Deadnettle” value ([8]; Preemergence, 31 g ai/ha) was 0. The “Plant response rating, Deadnettle” value [8, 17] was 0, the “Plant response rating, Deadnettle” value [8, 18] was 55 and the “Plant response rating, Deadnettle” value [8, 19] was 80. The “Plant response rating, Deadnettle” value [8, 20] was 5, the “Kochia plant response rating” value [9, 14] was 45 and the “Plant response rating, Kochia” value [9, 15] was 55. For the same compound, the “Plant response rating, Kochia” value [9, 16] was 75, the “Plant response rating (scale of 0 to 100), Kochia” value ([9]; Preemergence, 31 g ai/ha) was 0 and the “Plant response rating, Kochia” value [9, 17] was 20. For the same compound, the “Plant response rating, Kochia” value [9, 18] was 30, the “Plant response rating, Kochia” value [9, 19] was 60 and the “Plant response rating, Kochia” value [9, 20] was 55. The “Chickweed plant response rating” value [10, 14] was 95, the “Plant response rating, Chickweed” value [10, 15] was 100 and the “Plant response rating, Chickweed” value [10, 16] was 100. The “Plant response rating (scale of 0 to 100), Chickweed” value ([10]; Preemergence, 31 g ai/ha) was 100, the “Plant response rating, Chickweed” value [10, 17] was 100 and the “Plant response rating, Chickweed” value [10, 18] was 100. For the same compound, the “Plant response rating, Chickweed” value [10, 19] was 100, the “Plant response rating, Chickweed” value [10, 20] was 100 and the “Foxtail, Green plant response rating” value [11, 14] was 70. The “Plant response rating, Foxtail, Green” value [11, 15] was 80, the “Plant response rating, Foxtail, Green” value [11, 16] was 80 and the “Plant response rating (scale of 0 to 100), Foxtail, Green” value ([11]; Preemergence, 31 g ai/ha) was 95. For the same compound, the “Plant response rating, Foxtail, Green” value [11, 17] was 95, the “Plant response rating, Foxtail, Green” value [11, 18] was 100 and the “Plant response rating, Foxtail, Green” value [11, 19] was 100. For the same compound, the “Plant response rating, Foxtail, Green” value [11, 20] was 80, the “Galium plant response rating” value [12, 14] was 100 and the “Plant response rating, Galium” value [12, 15] was 100. The “Plant response rating, Galium” value [12, 16] was 100, the “Plant response rating (scale of 0 to 100), Galium” value ([12]; Preemergence, 31 g ai/ha) was 60 and the “Plant response rating, Galium” value [12, 17] was 70. The “Plant response rating, Galium” value [12, 18] was 85, the “Plant response rating, Galium” value [12, 19] was 100 and the “Plant response rating, Galium” value [12, 20] was 100. The “Blackgrass plant response rating” value [13, 14] was 75, the “Plant response rating, Blackgrass” value [13, 15] was 90 and the “Plant response rating, Blackgrass” value [13, 16] was 90. The “Plant response rating (scale of 0 to 100), Blackgrass” value ([13]; Preemergence, 31 g ai/ha) was 85, the “Plant response rating, Blackgrass” value [13, 17] was 90 and the “Plant response rating, Blackgrass” value [13, 18] was 95. The “Blackgrass plant response rating” value [13, 19] was 100 and the “Plant response rating, Blackgrass” value [13, 20] was 80.

Reference: patent US10597388B2, “Pyridazinone herbicides” (FMC CORPORATION, priority 2014, dated 2020)
